Measurements: PMC7297445, “Pharmacokinetic/Pharmacodynamic Determination and Preclinical Pharmacokinetics of the β-Lactamase Inhibitor ETX1317 and Its Orally Available Prodrug ETX0282” (ACS Infectious Diseases, 2020)
Read-outs that look alike come from different tables or passages of the source.

Experiments:
[1] = Intravenous pharmacokinetics of ETX1317; type: in vivo, rat; conditions: i.v. 10 mg/kg
Description: Intravenous pharmacokinetics of ETX1317 investigated in jugular vein cannulated male Sprague–Dawley rats (Charles River Laboratories, n = 3/route) at a dose of 10 mg/kg formulated in 0.9% saline. Oral pharmacokinetics of ETX0282 was evaluated at a 10 mg/kg equivalent dose of ETX1317 formulated in 25:75 PEG 400:WFI. The pH of each formulation was verified to fall within a range of 4–7 and were confirmed to be in solution prior to dosing. Potency was verified by LC/MS/MS. Dose volumes were 5 and 10 mL/kg for ETX1317(i.v.) and ETX0282(p.o.), respectively for rats. In both dog (male, 3/route) and monkey (male, 3/route) studies, i.v. and p.o. doses were formulated on 25:75 PEG 400:WFI (pH ∼5) and administered at a dose of ∼1 mg/kg. Dose volume was 1 mL/kg for both routes in dogs and monkeys with the i.v. dose infused over 15 min. For oral doses, gavage tubes were flushed with 10 mL after administration of the dose. i.v. doses were sterile-filtered through 0.22 μm PVDF membrane prior to administration into the cephalic vein.
Blood samples to be processed for plasma using K2EDTA as an anticoagulant were taken at 0.08, 0.17, 0.25, 0.5, 1, 2, 4, and 8 h (i.v.) and 0.25, 0.5, 1, 2, 4, 8, and 24 h (p.o.) post dose in rats. Blood samples collected into 0.5 mL BD microtainers containing 1.0 mg K2EDTA were centrifuged in a microfuge for 10 min, plasma pipetted to 96 well cryo tubes, and stored at −80 °C prior to analysis.
Urine collection was collected directly into Nalgene bottles placed under metabolism cages with frozen ice packs to chill urine over the collection interval. Urine was collected 0–12, and 12–24 h post-dose. Following collection of each urine sample, the total urine weight was recorded and 3 mL aliquots were retained for LC/MS/MS analysis.
Non-compartmental analysis of time vs concentration data for ETX1317, ETX0282, CPD, and CPDP was completed using WinNonlin 8.1 (Pharsite Corporation, Mountain View CA). The maximum concentration (Cmax) was the highest observed concentration; Tmax was the earliest time at which Cmax occurred; and the elimination half-life was estimated as ln 2/kel, where kel is the elimination rate constant derived from the slope of the log concentration versus time profile. The area under the concentration–time curve from 0 h to the last time point (AUC0-tlast) was calculated by linear trapezoidal approximation. Clearance (CL) was estimated as Dose/AUC0-tlast and the steady state volume of distribution (Vd,ss) was estimated as CL* MRT, where MRT = AUMC/AUC (MRT = mean residence time and AUMC = area under the moment curve). Oral bioavailability (F) was determined from ETX1317 concentrations and normalizing doses to free acid equivalence, where F = AUCp.o.*(dosei.v.)/AUCi.v.*(dosep.o.).

Plasma protein binding = type: in vitro ADME, mouse
Description: Plasma protein binding was determined by rapid equilibrium dialysis. Plasma was freshly prepared from blood samples drawn in to EDTA (anticoagulant) containing tubes. Plasma was prepared using a table-top centrifuge and spun per instruction of the tube manufacturer and specifications (Beckton, Dickinson and Company, Franklin Lakes, NJ) and placed on ice prior to use.
Pooled plasma samples were centrifuged at 2000 rpm (approximately 1400g) for 15 min at 4 °C to remove debris. Approximately 90% of the clear supernatant fraction was transferred to a separate tube. Samples (500 μL) were then spiked with a 100× stock solution 100 μM, 0.5 mM, and 10 mM ETX1317 in DMSO respectively for 1, 5, and 100 μM final concentrations, transferred to the top of the filter chambers, and allowed to equilibrate for 15 min prior to centrifugation. The filtrate tubes were centrifuged at 14000g for 15 min at 4 °C. Next, 50 μL of the filtrate was precipitated with 300 μL of acetonitrile containing 250 ng/mL of carbutamide as the internal standard and the samples were analyzed by LC/MS/MS analysis.

[2] = male, Sprague-Dawley, rat, plasma, iv

CC1=C[C@@H](C(N)=O)N2C[C@@H]1N(O[C@H](F)C(=O)O)C2=O [ETX1317]
CL ([1]; 10 mg/kg): 23.1 ± 1.1 mL/min/kg | clearance ([1]; male, Sprague-Dawley, rat, plasma, iv, 10 mg/kg, read-out: CL): 23 mL/min/kg | AUC [1, 2]: 7190 ± 340 ng·h/mL | Cmax [1, 2]: 17500 ± 2000 ng/mL | half-life [1, 2]: 24 ± 1.2 min | Vd ([1]; male, Sprague-Dawley, rat, plasma, iv, read-out: Vd,ss): 0.7 ± 0.01 L/kg | clearance ([1]; male, Sprague-Dawley, rat, urine and plasma, iv, 10 mg/kg, read-out: renal CL): 13.4 ± 0.3 mL/min/kg | Proportion unbound (Plasma protein binding; 1 µM): 88% | Proportion unbound (Plasma protein binding; 5 µM): 100% | Proportion unbound (Plasma protein binding; 100 µM): 90% | fraction unbound at 15 min (Plasma protein binding; mouse plasma, read-out: percent unbound): 0.93
